Measured values from DBAASP.
Values after ≈ are worked out from the molar mass of the structure shown. Values joined by “and” are separate entries in the source; they are usually repeats but may differ in a detail not shown here. Equal values may be shown once. Values belong to the compound of their own block, whether it stands above or below them.

Columns and labels:
Assay in all cases: ≥ marks a high value that may be exact or a test limit, other limits are often not marked, values filed in µg/mL are converted to µM
[1] = tested on: Escherichia coli JM109
[2] = tested on: Pseudomonas putida GPp104
[3] = tested on: Escherichia coli BL21(DE3)
[4] = tested on: Cupriavidus necator H16
[5] = tested on: Nocardia brasiliensis IP16-80
[6] = tested on: Aspergillus niger IP218-53
[7] = tested on: Trichophyton simii J43 IP903-65
[8] = tested on: Saccharomyces cerevisiae IP118079
[9] = tested on: Trichophyton rubrum IP2043-92
[10] = tested on: Cryptococcus neoformans IP962-67
[11] = tested on: Trichophyton mentagrophytes IP877-71
[12] = tested on: Candida albicans IP884-65
[13] = tested on: Cryptococcus neoformans IP960-67
[14] = tested on: Aspergillus fumigatus IP1025-70
[15] = tested on: Staphylococcus aureus IP76-25
[16] = tested on: Escherichia coli IP76-24
[17] = tested on: Aeromonas caviae IP67-16T
[18] = tested on: Microsporum canis IP1194
[19] = tested on: Enterococcus faecalis IP103214
[20] = tested on: Trichophyton simii IP1063-74
[21] = tested on: Candida albicans IP886-65
[22] = tested on: Aspergillus fumigatus
[23] = tested on: Escherichia coli D22
[24] = tested on: Micrococcus luteus A270
[25] = tested on: Neurospora crassa CBS 327-54
[26] = tested on: Mycobacterium tuberculosis CAS3
[27] = tested on: Pseudomonas aeruginosa ATCC 27853
[28] = tested on: Klebsiella pneumoniae ST258
[29] = tested on: Mycobacterium tuberculosis H37Rv
[30] = tested on: Mycobacterium tuberculosis FYX
[31] = tested on: Escherichia coli ATCC 25922
[32] = tested on: Mycobacterium tuberculosis
[33] = tested on: Mycobacterium tuberculosis WXY
[34] = tested on: Staphylococcus aureus ATCC 6538
[35] = tested on: Bacillus cereus
[36] = tested on: Staphylococcus aureus
[37] = tested on: Lactococcus lactis
[38] = tested on: Escherichia coli NCTC 10418
[39] = tested on: Escherichia coli
[40] = tested on: Escherichia coli ATCC 10536
[41] = tested on: Cryptococcus neoformans ATCC 24067
[42] = tested on: Candida krusei
[43] = tested on: Cryptococcus neoformans
[44] = tested on: Candida krusei ATCC 20029
[45] = tested on: Aggregatibacter actinomycetemcomitans ATCC 29522
[46] = tested on: Staphylococcus epidermidis ATCC 12228
[47] = tested on: Acinetobacter baumannii ATCC 19606
[48] = tested on: Streptococcus sanguinis ATCC 10556
[49] = tested on: Cryptococcus gattii ATCC 32608

Structure (SMILES): CSCC[C@H](NC(=O)[C@H](CO)NC(=O)[C@@H](N)CO)C(=O)N[C@@H](CCCCN)C(=O)N[C@@H](CC(C)C)C(=O)N[C@@H](CO)C(=O)N[C@@H](Cc1ccccc1)C(=O)N[C@@H](CCCN=C(N)N)C(=O)N[C@@H](C)C(=O)N[C@@H](CCCN=C(N)N)C(=O)N[C@@H](C)C(=O)N[C@@H](Cc1ccc(O)cc1)C(=O)NCC(=O)N[C@@H](Cc1ccccc1)C(=O)N[C@@H](CCCN=C(N)N)C(=O)NCC(=O)N1CCC[C@H]1C(=O)NCC(=O)N[C@@H](CC(C)C)C(=O)N[C@@H](CCC(N)=O)C(=O)N[C@@H](CC(C)C)C(=O)O [SSMKLSFRARAYGFRGPGLQL]
MIC [22]: ≥ 100 µM
MIC [23]: ≥ 100 µM
MIC [24]: 10 µM (≈ 23.4 µg/mL)
MIC [25]: 10 µM (≈ 23.4 µg/mL)

Structure (SMILES): CC(C)C[C@H](NC(=O)[C@H](CCCCN)NC(=O)[C@H](CCCCN)NC(=O)[C@H](CO)NC(=O)[C@H](Cc1ccccc1)NC(=O)[C@H](CCCCN)NC(=O)[C@H](CCCCN)NC(=O)[C@H](CC(C)C)NC(=O)CNC(=O)[C@H](CCCCN)NC(=O)[C@H](CC(C)C)NC(=O)CNC(=O)[C@H](Cc1c[nH]c2ccccc12)NC(=O)[C@@H](N)Cc1ccccc1)C(=O)O [FWGLKGLKKFSKKL]
MIC [26]: 11.2 µM (≈ 18.8 µg/mL)
MIC [27]: > 29.8 µM
MIC [28]: 29.8 µM (≈ 50 µg/mL)
MIC [29]: 11.9 µM and 11.2 µM
MIC [30]: 11.2 µM (≈ 18.8 µg/mL)
MIC [31]: 25 µM (≈ 42 µg/mL)
MIC [32]: 5.95 µM (≈ 10 µg/mL)
MIC [33]: 22.3 µM (≈ 37.5 µg/mL)

Structure (SMILES): CC[C@H](C)[C@H](NC(=O)[C@H](CCCCN)NC(=O)[C@H](CCCCN)NC(=O)[C@H](CC(C)C)NC(=O)[C@H](CC(=O)O)NC(=O)[C@@H](NC(=O)[C@@H](N)Cc1ccccc1)C(C)C)C(=O)N[C@@H](C)C(=O)N[C@@H](CC(N)=O)C(=O)N[C@H](C(=O)N[C@H](C(=O)N[C@@H](CC(N)=O)C(=O)N[C@@H](CO)C(=O)N[C@H](C(=O)N[C@@H](Cc1ccccc1)C(N)=O)[C@@H](C)CC)[C@@H](C)CC)[C@@H](C)CC [FVDLKKIANIINSIF]
MIC [34]: 3.1 µM (≈ 5.38 µg/mL)
MIC [35]: 14.4 µM (≈ 25 µg/mL)
MIC [36]: 14.4 µM (≈ 25 µg/mL)
MIC [37]: 14.4 µM (≈ 25 µg/mL)
MIC [38]: ≥ 100 µM
MIC [39]: > 100 µM

Structure (SMILES): CC[C@H](C)[C@H](N)C(=O)N[C@@H](Cc1c[nH]c2ccccc12)C(=O)N[C@@H](CC(C)C)C(=O)N[C@H](C(=O)N[C@@H](C)C(=O)N[C@@H](CC(C)C)C(=O)N[C@@H](CCCCN)C(=O)N[C@@H](Cc1ccccc1)C(=O)N[C@@H](CC(C)C)C(=O)NCC(=O)N[C@@H](CCCCN)C(=O)N[C@@H](CC(N)=O)C(=O)N[C@@H](CC(C)C)C(=O)NCC(=O)N[C@@H](CCCCN)C(=O)N[C@@H](Cc1cnc[nH]1)C(=O)N[C@@H](CC(C)C)C(=O)N[C@@H](C)C(=O)N[C@@H](CCCCN)C(=O)N[C@@H](CCC(N)=O)C(=O)N[C@@H](CCC(N)=O)C(=O)N[C@@H](CC(C)C)C(=O)N[C@@H](C)C(=O)N[C@@H](CCCCN)C(=O)N[C@@H](CC(C)C)C(N)=O)[C@@H](C)O [IWLTALKFLGKNLGKHLAKQQLAKL]
MIC [40]: 5.52 µM (≈ 15.6 µg/mL)
MIC [41]: 7.11 µM (≈ 20.1 µg/mL)
MIC [42]: 26.3 µM (≈ 74.5 µg/mL)
MIC [43]: 13.2 µM (≈ 37.4 µg/mL)
MIC [27]: 2.82 µM (≈ 7.99 µg/mL)
MIC [44]: 14.2 µM (≈ 40.3 µg/mL)
MIC [45]: 10.6 µM (≈ 30 µg/mL)
MIC [34]: 5.52 µM (≈ 15.6 µg/mL)
MIC [46]: 0.7 µM (≈ 1.98 µg/mL)
MIC [47]: 0.7 µM (≈ 1.98 µg/mL)
MIC [48]: 10.9 µM (≈ 30.9 µg/mL)
MIC [49]: 2.23 µM (≈ 6.32 µg/mL)

More lines, now with the values ahead:

MIC [1]: 6.25 µM (≈ 13.6 µg/mL)
MIC [2]: 6.25 µM (≈ 13.6 µg/mL)
MIC [3]: 0.313 µM (≈ 0.681 µg/mL)
MIC [4]: 10 µM (≈ 21.8 µg/mL)
Structure (SMILES): CC[C@H](C)[C@H](NC(=O)[C@H](Cc1ccc(O)cc1)NC(=O)[C@@H](NC(=O)[C@@H]1CCCN1C(=O)[C@H](CCCN=C(N)N)NC(=O)[C@@H](NC(=O)[C@@H]1CCCN1C(=O)[C@@H](N)CCCN=C(N)N)C(C)C)C(C)C)C(=O)N1CCC[C@H]1C(=O)N[C@@H](CCC(N)=O)C(=O)N1CCC[C@H]1C(=O)N[C@@H](CCCN=C(N)N)C(=O)N1CCC[C@H]1C(=O)N1CCC[C@H]1C(=O)N[C@@H](Cc1cnc[nH]1)C(=O)N1CCC[C@H]1C(=O)N[C@@H](CCCN=C(N)N)C(=O)N[C@@H](CC(C)C)C(=O)O [RPVRPVYIPQPRPPHPRL]

MIC [5]: ≥ 40 µM
MIC [6]: 30 µM (≈ 85.2 µg/mL)
MIC [7]: 20 µM (≈ 56.8 µg/mL)
MIC [8]: 5 µM (≈ 14.2 µg/mL)
MIC [9]: 20 µM (≈ 56.8 µg/mL)
MIC [10]: 1 µM (≈ 2.84 µg/mL)
MIC [11]: 20 µM (≈ 56.8 µg/mL)
MIC [12]: 10 µM (≈ 28.4 µg/mL)
MIC [13]: 1 µM (≈ 2.84 µg/mL)
MIC [14]: ≥ 70 µM
MIC [15]: 2 µM (≈ 5.68 µg/mL)
MIC [16]: ≥ 35 µM
MIC [17]: ≥ 35 µM
MIC [18]: 15 µM (≈ 42.6 µg/mL)
MIC [19]: ≥ 40 µM
MIC [20]: 30 µM (≈ 85.2 µg/mL)
MIC [21]: 10 µM (≈ 28.4 µg/mL)
Structure (SMILES): CC[C@H](C)[C@H](NC(=O)[C@H](CCCCN)NC(=O)[C@H](CO)NC(=O)[C@H](Cc1c[nH]c2ccccc12)NC(=O)[C@H](CC(C)C)NC(=O)CN)C(=O)N[C@@H](CCCCN)C(=O)N[C@H](C(=O)N[C@@H](C)C(=O)NCC(=O)N[C@@H](CCCCN)C(=O)N[C@@H](CO)C(=O)N[C@H](C(=O)N[C@@H](C)C(=O)N[C@@H](CCCCN)C(=O)N[C@@H](C)C(=O)N[C@@H](C)C(=O)N[C@@H](C)C(=O)N[C@@H](CCCCN)C(=O)N[C@@H](C)C(=O)N[C@@H](C)C(=O)N[C@H](C(=O)N[C@@H](CCCCN)C(=O)N[C@@H](C)C(=O)N[C@H](C(=O)N[C@H](C(=O)N[C@@H](CC(N)=O)C(=O)N[C@@H](C)C(=O)N[C@H](C(=O)O)C(C)C)[C@@H](C)O)C(C)C)C(C)C)C(C)C)[C@@H](C)O [GLWSKIKTAGKSVAKAAAKAAVKAVTNAV]
